# In patent US20260327246A1, “FUSED RING KRAS INHIBITORS FOR TREATING DISEASE” (BLOSSOMHILL THERAPEUTICS, INC., priority 2023, published 2026):
# Experiments:
# SW620 (KRAS G12V) = assay: Cell Proliferation Assay (CellTiter-Glo 2.0), SW620; format: cell-based; details: Homo sapiens, SW-620; SW620 (KRAS G12V) cells; 72 hours at 37° C., 5% CO2; read-out: Anti-proliferation IC50, SW620 (KRAS G12V)
# Protocol: (§1) Two thousand KRAS mutant cells per well are seeded in 384-well white plate and then treated with indicated compounds for 72 hours at 37° C. and 5% CO2. Cell proliferation is measured using CellTiter-Glo 2.0 luciferase-based ATP detection assay (Promega, Madison, WI) following the manufacturer's protocol. IC50 values are determined using Prism software (GraphPad Software, San Diego, CA).
# GP2D (KRAS G12D) = assay: Cell Proliferation Assay (CellTiter-Glo 2.0), GP2D; format: cell-based; details: GP2D (KRAS G12D) cells; 72 hours at 37° C., 5% CO2; read-out: Anti-proliferation IC50, GP2D (KRAS G12D)
# Protocol: as §1
IC50 (SW620 (KRAS G12V)),Structure (SMILES),IC50 (GP2D (KRAS G12D))
142 nM,"C#Cc1c(F)ccc2cc(O)cc(-c3nc4c5c(nc(OC[C@@]67CCCN6C[C@H](F)C7)nc5c3F)N3CCCCC3C(O)C4)c12 (stereo partly drawn) [compound 29, 5-(8-ethynyl-7-fluoro-3-hydroxynaphthalen-1-yl)-4-fluoro-2-{[(2R,7aS)-2-fluorotetrahydro-1H-pyrrolizin-7a(5H)-yl]methoxy}-8,8a,9,10,11,12-hexahydro-7H-1,3,6,12a-tetraazabenzo[4,5]cyclohepta[1,2,3-de]naphthalen-8-ol]",14 nM
1720 nM,"C#Cc1c(F)ccc2cc(O)cc(-c3nc4c5c(nc(OC[C@@]67CCCN6C[C@H](F)C7)nc5c3F)N3CCCCC3=C4C)c12 [compound 30, 5-ethynyl-6-fluoro-4-(4-fluoro-2-{[(2R,7aS)-2-fluorotetrahydro-1H-pyrrolizin-7a(5H)-yl]methoxy}-7-methyl-8,9,10,11-tetrahydropyrido[1,2-g]pyrimido[4,5,6-de][1,6]naphthyridin-5-yl)naphthalen-2-ol]",819 nM
591 nM,"CCc1c(F)ccc2cc(O)cc(-c3nc4c5c(nc(OC[C@@]67CCCN6C[C@H](F)C7)nc5c3F)N3CCCCC3C=C4)c12 (stereo partly drawn) [compound 31, 5-ethyl-6-fluoro-4-(4-fluoro-2-{[(2R,7aS)-2-fluorotetrahydro-1H-pyrrolizin-7a(5H)-yl]methoxy}-9,10,11,12-tetrahydro-8aH-1,3,6,12a-tetraazabenzo[4,5]cyclohepta[1,2,3-de]naphthalen-5-yl)naphthalen-2-ol]",136 nM
2040 nM,"C=Cc1c(F)ccc2cc(O)cc(-c3nc4c5c(nc(OC[C@@]67CCCN6C[C@H](F)C7)nc5c3F)N3CCCCC3C(C#N)C4)c12 (stereo partly drawn) [compound 32, 5-(8-ethenyl-7-fluoro-3-hydroxynaphthalen-1-yl)-4-fluoro-2-{[(2R,7aS)-2-fluorotetrahydro-1H-pyrrolizin-7a(5H)-yl]methoxy}-8,8a,9,10,11,12-hexahydro-7H-1,3,6,12a-tetraazabenzo[4,5]cyclohepta[1,2,3-de]naphthalene-8-carbonitrile]",461 nM
